From EP4268810A1 (priority 2022, dated 2023)
Read-outs that look alike come from different tables or passages of the source.

Key:
[1] = system: SARS-CoV-2 clinical omicron isolate
[2] = system: SARS-CoV-2 clinical omicron isolate; test: microbe, parasite or virus in culture; conditions: Severe acute respiratory syndrome coronavirus 2, Calu-3

For [H]/N=C(/N)N/C(=N/[H])NCCc1ccccc1 [Phenformin, phenformin], the “Therapeutic range: CC50/IC50, CTG” value ([1]; human, calu-3 cells) was “CTG: 1674”, the “Therapeutic range: CC50/IC50, IncuCyte” value ([1]; human, calu-3 cells) was “IncuCyte: 1111” and the “Therapeutic range: CC50/IC50, MTT” value ([1]; human, calu-3 cells) was “MTT: 1123”. It also gave an IC50 [2] of 1350 nM.
For COc1[nH]c(=O)c(C(=O)C(C)CC(C)C(Cl)CCl)c(O)c1OC (centres unmarked) [Atpenin A5], the “Therapeutic range: CC50/IC50, CTG” value ([1]; SARS-CoV-2 omicron in Calu-3 cells, CC50 by CTG) was “CTG: 1.3”, the “Therapeutic range: CC50/IC50, IncuCyte” value ([1]; SARS-CoV-2 omicron in Calu-3 cells, CC50 by IncuCyte) was “IncuCyte: > 117.6” and the “Therapeutic range: CC50/IC50, MTT” value ([1]; SARS-CoV-2 omicron in Calu-3 cells, CC50 by MTT) was “MTT: 1.8”. For the same compound, the IC50 [2] was 680 nM.
